According to patent publication US4612318A, “CNS-depressant and analgesic tricyclo-[pyrazolo-[3,4-6]-pyridine] derivatives and pharmaceutical compositions thereof” (Gruppo Lepetit S.p.A., priority 1982, dated 1986):

How the values were obtained:
[1] = system: writhing in mice intraperitoneally administered with p-phenylquinone; assay: "writhing test" (p-phenylquinone) for analgesia; type: in vivo
Experimental: (§1) Hendershot and J. Forsaith, in J. Pharm. Exp. Therap. […] Int. Pharmacodyn. […] In the former the disappearance or the reduction of writhing in mice, intraperitoneally administered, with p-phenylquinone--a substance known to produce pain especially in the place of injection--is evaluated; the latter test is used to evaluate the ratio of relief from the pain due to compression of oedema paws in rats orally administered with the test compound.

[2] = system: pain due to compression of oedema paws in rats; assay: "pain relief test" (compression of oedema paws) for analgesia; type: in vivo
Experimental: as §1

[3] = system: secondary conditioned response (CR2), primary conditioned response (CR) and unconditioned response (UR) of rats; assay: "pole climbing avoidance test" (anti-anxiety activity); type: in vivo; settings: i.p., about 3 to about 60 mg/kg, groups of ten rats
Excerpt: The anti-anxiety activity of the compounds of the invention was investigated by means of the "pole climbing avoidance test", performed essentially as described by G. Maffii, in Journ. Pharm. Pharmacol., 11 129, (1959). A conditioned animal, generally rat, is deconditioned, i.e. is brought to its normal pyschic behaviour, by administration of a suitable amount of the compound to be tested. According to the authors, an inhibition of the secondary conditioned response (CR2) without a contemporary or coupled with a not significant inhibition of the primary conditioned response (CR) and the unconditioned response (UR) is a clear indication of an anti-anxiety effect since these last two parameters are connected with sedative and hypnotic properties.

[4] = system: writhing in mice; pain due to compression of oedema paws in rats; assay: analgesic activity in both tests (writhing test in mice and pain relief test in rats); type: in vivo
Excerpt: The analgesic activity of the compounds of the present invention was ascertained by means of two known tests for analgesia: the "writhing test" in mice, described by L.C. Hendershot and J. Forsaith, in J. Pharm. Exp. Therap. 125, 237, (1959), and the "pain relief test" in rats described by L. O. Randall and J. J. Selitto, in Arch. Int. Pharmacodyn. 111, 409, (1957). In the former the disappearance or the reduction of writhing in mice, intraperitoneally administered, with p-phenylquinone--a substance known to produce pain especially in the place of injection--is evaluated; the latter test is used to evaluate the ratio of relief from the pain due to compression of oedema paws in rats orally administered with the test compound.

[5] = acute toxicity (LD50) in mice; settings: mouse, in vivo, po; orally administered mice
[6] = acute toxicity (LD50) in rats; settings: rat, in vivo, po; orally administered rats

CC(=O)Oc1ccccc1C(=O)O [ASA, acetylsalicylic acid, reference compound]
percent of inhibition of writhings ([1]; 20 mg/kg per os): 10%
percent of inhibition of writhings ([1]; 50 mg/kg per os): 57%
percent of inhibition of writhings ([1]; 100 mg/kg per os): 86%
percent of increase of the pain threshold ([2]; 50 mg/kg per os): 39%
percent of increase of the pain threshold ([2]; 100 mg/kg per os): 84%
percent of increase of the pain threshold ([2]; 300 mg/kg per os): 109%

Cc1nn(C)c(N)c1C1=CCN(C)CC1 [Example 1, 4-(1,2,5,6-tetrahydro-1-methyl-4-pyridinyl)-1,3-dimethyl 5-(1H)-pyrazolamine]
influence on the CR and the UR (in words) [3]: no practical influence

CCC(=O)N1CC=C(c2c(C)nn(C)c2N)CC1 [Example 8]
influence on the CR and the UR (in words) [3]: no practical influence

Cc1nn(C)c2[nH]c(=O)c3c(c12)CCCC3 [Example 18, 6,7,8,9-Tetrahydro-1,3-dimethyl-3H-pyrazolo[3,4-c]isoquinoline-5(4H)-one]
influence on the CR and the UR (in words) [3]: no practical influence

CCCCOc1nc2c(c(C)nn2C)c2c1CCCC2 [Example 27]
influence on the CR and the UR (in words) [3]: no practical influence

Cc1nn(C)c2nc(OCCO)c3c(c12)CCCC3 [Example 28]
influence on the CR and the UR (in words) [3]: no practical influence

CCN(CC)CCn1c(=O)c2c(c3c(C)nn(C)c31)CCC2 [Example 39]
analgesic activity in these tests (in words) [4]: good activity

Cc1nn(C)c2c1c1c(c(=O)n2CCN2CCN(c3ccccc3)CC2)CCC1 [Example 40]
influence on the CR and the UR (in words) [3]: no practical influence

Cc1nn(C)c2c1c1c(c(=O)n2CCN2CCN(C)CC2)CCCC1 [Example 45]
influence on the CR and the UR (in words) [3]: no practical influence

Cc1nn(C)c2ncc3c(c12)CCC3 [Example 55]
analgesic activity in these tests (in words) [4]: good activity

Cc1nn(C)c2ncc3c(c12)CCCC3 [Example 57]
LD50 [5]: > 1000 mg/kg
percent of inhibition of writhings ([1]; 10 mg/kg per os): 25%
percent of inhibition of writhings ([1]; 20 mg/kg per os): 51%
percent of inhibition of writhings ([1]; 50 mg/kg per os): 89%
potency ratio co. 57:ASA ([1]; writhing test, per os): 6.6
analgesic activity in these tests (in words) [4]: highly effective
LD50 [6]: 650 mg/kg
percent of increase of the pain threshold ([2]; 20 mg/kg per os): 78%
percent of increase of the pain threshold ([2]; 50 mg/kg per os): 115%
percent of increase of the pain threshold ([2]; 100 mg/kg per os): 172%
potency ratio co. 57:ASA ([2]; pain relief test, per os): 2.6
